From article PMC10303271, “Synthesis and Receptor Binding Studies of α5 GABAAR Selective Novel Imidazodiazepines Targeted for Psychiatric and Cognitive Disorders” (Molecules, 2023)

What was measured:
hERG K+ channel = molecular target: T1, hERG K+ channel (Homo sapiens, UniProt Q12809); experiment: PDSP radioligand binding at hERG; conditions: human; at 10,000 nM; N = 5; read-out: Binding Affinity at hERG % Inhibition (Primary Binding)
T1 construct: purchased NIMH Psychoactive Drug Screening Program (PDSP)
T1 sequence (Q12809 whole entry): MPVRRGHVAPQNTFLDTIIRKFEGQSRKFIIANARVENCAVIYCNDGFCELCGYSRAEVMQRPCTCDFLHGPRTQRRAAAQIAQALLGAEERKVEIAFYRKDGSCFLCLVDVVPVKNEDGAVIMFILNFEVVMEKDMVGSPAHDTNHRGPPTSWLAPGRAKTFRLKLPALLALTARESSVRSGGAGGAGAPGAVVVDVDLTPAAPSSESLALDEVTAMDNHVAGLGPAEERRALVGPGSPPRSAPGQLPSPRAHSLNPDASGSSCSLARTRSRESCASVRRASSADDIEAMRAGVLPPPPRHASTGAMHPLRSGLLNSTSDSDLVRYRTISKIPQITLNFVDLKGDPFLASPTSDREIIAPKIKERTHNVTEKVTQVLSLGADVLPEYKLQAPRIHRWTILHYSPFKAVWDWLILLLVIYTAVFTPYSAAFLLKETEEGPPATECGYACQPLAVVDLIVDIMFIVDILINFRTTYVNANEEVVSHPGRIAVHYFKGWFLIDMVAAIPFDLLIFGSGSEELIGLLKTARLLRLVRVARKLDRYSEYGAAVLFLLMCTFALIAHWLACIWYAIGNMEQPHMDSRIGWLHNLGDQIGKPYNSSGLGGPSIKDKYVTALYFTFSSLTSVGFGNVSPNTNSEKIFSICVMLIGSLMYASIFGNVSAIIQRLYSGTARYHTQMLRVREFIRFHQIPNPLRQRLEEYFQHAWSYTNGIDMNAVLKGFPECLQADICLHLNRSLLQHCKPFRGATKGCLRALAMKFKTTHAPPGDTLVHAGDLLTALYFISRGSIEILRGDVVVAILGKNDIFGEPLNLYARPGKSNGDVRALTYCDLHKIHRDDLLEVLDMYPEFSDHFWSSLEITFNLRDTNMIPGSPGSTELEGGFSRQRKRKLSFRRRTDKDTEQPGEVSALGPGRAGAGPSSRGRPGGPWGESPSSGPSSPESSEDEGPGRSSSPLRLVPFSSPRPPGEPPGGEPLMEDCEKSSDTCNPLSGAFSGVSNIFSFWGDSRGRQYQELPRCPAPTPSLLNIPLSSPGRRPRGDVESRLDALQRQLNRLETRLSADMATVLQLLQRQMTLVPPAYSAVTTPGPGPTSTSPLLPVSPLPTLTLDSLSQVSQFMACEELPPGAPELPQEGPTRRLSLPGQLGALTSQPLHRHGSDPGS
Procedure: (§1) To determine if any off-target receptor-binding effects are present, all the novel ligands were sent to the National Institute of Mental Health (NIMH), Psychoactive Drug Screening Program (PDSP). The ligands were screened over a panel of 47 receptors, ion channels, and transporters to determine any other possible interactions with […]. The hERG-binding was also determined. […] No binding of the test compounds to calcium channels was observed. […] It is necessary to screen the compounds for hERG-binding during the early process of drug discovery. The unintentional binding of many drugs to hERG can cause blockade of hERG K+ channels in the heart, which can cause many side effects including cardiac arrhythmias and sudden death. […] All of the α5 imidazodiazepines were tested for hERG-binding.
(§2) The NIMH PDSP assay protocol book [https://kidbdev.med.unc.edu/databases/PDSP%20Protocols%20II%202013-03-28.pdf accessed on 23 April 2023]. describes the protocols for primary and secondary radio-ligand binding assays. These assays were carried out in a final volume of 125 µL per well in the appropriate binding buffer.
(§3) The binding of a ligand to a receptor, ion channel, or transporter was determined in the […] of 10 µM of the appropriate reference compound. […] Plates were incubated in the dark for 90 min at rt, and the reactions were stopped by vacuum filtration onto 0.3% polyethyleneimine (PEI) soaked 96-well filter mats using a 96-well Filtermateharvester. This was followed by three washes with cold PBS buffer. Radioactivity was then counted on a Microbeta counter. Nonlinear regression was used to analyze the data with N = 6 replicates.

DAT = molecular target: T2, DAT (Homo sapiens, UniProt Q01959); experiment: PDSP primary binding DAT; conditions: 1.5 h, primary binding, 10,000 nM; last figure of the line = mean of the 4 before it; some tables list DAT twice; read-out: DAT, PDSP raw data, mean
T2 construct: purchased NIMH Psychoactive Drug Screening Program (PDSP)
T2 sequence (Q01959 whole entry): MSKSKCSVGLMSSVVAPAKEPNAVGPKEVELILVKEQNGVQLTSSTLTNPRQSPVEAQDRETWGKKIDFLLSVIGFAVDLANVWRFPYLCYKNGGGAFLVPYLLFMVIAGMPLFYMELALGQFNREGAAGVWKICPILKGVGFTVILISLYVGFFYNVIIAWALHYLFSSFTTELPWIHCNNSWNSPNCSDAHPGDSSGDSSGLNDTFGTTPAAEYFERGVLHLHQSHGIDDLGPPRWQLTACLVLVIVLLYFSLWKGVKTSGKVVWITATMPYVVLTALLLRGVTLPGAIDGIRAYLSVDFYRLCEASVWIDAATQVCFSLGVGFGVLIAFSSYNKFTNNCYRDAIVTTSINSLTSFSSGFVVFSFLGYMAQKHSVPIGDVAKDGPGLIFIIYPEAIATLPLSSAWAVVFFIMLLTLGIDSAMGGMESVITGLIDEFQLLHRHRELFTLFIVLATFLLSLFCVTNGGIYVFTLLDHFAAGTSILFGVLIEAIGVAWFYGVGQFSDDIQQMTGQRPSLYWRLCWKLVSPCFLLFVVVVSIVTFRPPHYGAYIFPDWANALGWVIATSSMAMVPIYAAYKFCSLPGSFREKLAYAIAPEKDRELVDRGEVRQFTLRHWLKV
Procedure: as §1, §2, §3

GABAA = experiment: PDSP primary binding GABAA; conditions: primary binding, 10,000 nM; last figure of the line = mean of the 4 before it; some tables list it twice
Procedure: as §1, §2, §3

M4 = molecular target: T3, M4 (Homo sapiens, UniProt P08173); experiment: PDSP primary binding M4; conditions: primary binding, 10,000 nM; last figure of the line = mean of the 4 before it; read-out: M4, PDSP raw data, mean
T3 construct: purchased NIMH Psychoactive Drug Screening Program (PDSP)
T3 sequence (P08173 1-479): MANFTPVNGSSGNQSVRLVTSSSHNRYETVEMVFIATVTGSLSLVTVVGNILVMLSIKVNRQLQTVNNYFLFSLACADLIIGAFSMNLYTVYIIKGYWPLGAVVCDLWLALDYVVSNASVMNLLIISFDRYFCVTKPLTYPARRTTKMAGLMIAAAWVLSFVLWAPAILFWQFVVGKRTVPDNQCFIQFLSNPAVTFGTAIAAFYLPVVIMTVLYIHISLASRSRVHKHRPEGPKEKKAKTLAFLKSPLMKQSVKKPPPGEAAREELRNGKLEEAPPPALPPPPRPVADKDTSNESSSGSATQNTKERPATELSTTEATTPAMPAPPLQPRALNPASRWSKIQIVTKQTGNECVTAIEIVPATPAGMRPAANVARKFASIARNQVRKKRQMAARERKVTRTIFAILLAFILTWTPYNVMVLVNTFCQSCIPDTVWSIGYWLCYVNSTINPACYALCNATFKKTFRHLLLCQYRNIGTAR
Procedure: as §1, §2, §3

SERT = molecular target: T4, SERT (Homo sapiens, UniProt P31645); experiment: PDSP primary binding SERT; conditions: primary binding, 10,000 nM; last figure of the line = mean of the 4 before it; some tables list SERT twice; read-out: SERT, PDSP raw data, mean
T4 construct: purchased NIMH Psychoactive Drug Screening Program (PDSP)
T4 sequence (P31645 whole entry): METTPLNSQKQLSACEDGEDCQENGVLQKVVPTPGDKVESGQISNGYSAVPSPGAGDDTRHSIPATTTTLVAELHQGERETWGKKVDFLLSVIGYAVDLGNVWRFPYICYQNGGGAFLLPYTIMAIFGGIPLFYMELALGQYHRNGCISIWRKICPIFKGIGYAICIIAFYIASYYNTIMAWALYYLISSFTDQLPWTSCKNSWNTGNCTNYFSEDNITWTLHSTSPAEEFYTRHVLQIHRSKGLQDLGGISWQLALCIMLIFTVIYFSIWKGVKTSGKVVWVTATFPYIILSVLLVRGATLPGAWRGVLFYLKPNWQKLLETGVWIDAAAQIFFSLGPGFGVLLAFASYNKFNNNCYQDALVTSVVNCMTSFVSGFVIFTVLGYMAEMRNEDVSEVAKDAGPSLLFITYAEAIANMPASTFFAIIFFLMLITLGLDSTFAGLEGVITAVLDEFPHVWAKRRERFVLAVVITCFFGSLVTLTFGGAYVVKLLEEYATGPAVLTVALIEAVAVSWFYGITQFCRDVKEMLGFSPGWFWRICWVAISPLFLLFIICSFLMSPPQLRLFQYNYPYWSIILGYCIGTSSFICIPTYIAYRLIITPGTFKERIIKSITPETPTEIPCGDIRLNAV
Procedure: as §1, §2, §3

Sigma 1 = experiment: PDSP primary binding Sigma 1; conditions: primary binding, 10,000 nM; last figure of the line = mean of the 4 before it
Procedure: as §1, §2, §3

Alpha3Beta2 = molecular target: T5, Alpha3Beta2 (Rattus norvegicus, UniProt P04757+P12390); experiment: PDSP primary binding Alpha3Beta2; conditions: primary binding, 10,000 nM; last figure of the line = mean of the 4 before it; read-out: Alpha3Beta2, PDSP raw data, mean
T5 construct: purchased NIMH Psychoactive Drug Screening Program (PDSP)
T5 sequence (P04757 26-499): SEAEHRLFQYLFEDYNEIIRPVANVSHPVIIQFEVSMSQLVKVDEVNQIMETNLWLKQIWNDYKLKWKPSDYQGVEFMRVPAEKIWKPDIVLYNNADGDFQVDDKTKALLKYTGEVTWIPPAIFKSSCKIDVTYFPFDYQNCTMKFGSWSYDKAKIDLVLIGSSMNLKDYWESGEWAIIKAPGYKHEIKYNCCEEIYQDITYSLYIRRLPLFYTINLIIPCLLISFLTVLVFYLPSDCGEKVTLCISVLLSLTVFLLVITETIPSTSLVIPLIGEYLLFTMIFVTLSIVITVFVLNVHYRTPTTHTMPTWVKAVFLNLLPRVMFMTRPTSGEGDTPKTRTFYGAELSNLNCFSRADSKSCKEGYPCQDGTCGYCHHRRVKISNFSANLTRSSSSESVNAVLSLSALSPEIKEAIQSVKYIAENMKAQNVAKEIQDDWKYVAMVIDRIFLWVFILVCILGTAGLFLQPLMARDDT
T5 sequence (P12390 25-500): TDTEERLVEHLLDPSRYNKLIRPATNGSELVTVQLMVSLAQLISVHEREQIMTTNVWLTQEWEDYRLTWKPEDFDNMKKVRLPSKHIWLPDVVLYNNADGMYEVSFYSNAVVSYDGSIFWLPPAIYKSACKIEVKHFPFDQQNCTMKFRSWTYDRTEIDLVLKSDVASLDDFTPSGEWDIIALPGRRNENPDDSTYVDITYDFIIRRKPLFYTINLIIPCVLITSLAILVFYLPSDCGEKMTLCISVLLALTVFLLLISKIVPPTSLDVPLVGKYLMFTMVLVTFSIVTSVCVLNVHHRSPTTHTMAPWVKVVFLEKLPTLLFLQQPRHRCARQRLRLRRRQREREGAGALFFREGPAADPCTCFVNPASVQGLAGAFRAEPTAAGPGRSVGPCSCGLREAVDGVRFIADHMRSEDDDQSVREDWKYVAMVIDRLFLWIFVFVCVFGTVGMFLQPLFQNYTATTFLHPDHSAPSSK
Procedure: as §1, §2, §3

Alpha4Beta2 (Rat Brain) = molecular target: T6, Alpha4Beta2 (Rat Brain) (Rattus norvegicus, UniProt P09483+P12390); experiment: PDSP primary binding Alpha4Beta2 (Rat Brain); conditions: primary binding, 10,000 nM; last figure of the line = mean of the 4 before it; read-out: Alpha4Beta2 (Rat Brain), PDSP raw data, mean
T6 construct: purchased NIMH Psychoactive Drug Screening Program (PDSP)
T6 sequence (P09483 31-630): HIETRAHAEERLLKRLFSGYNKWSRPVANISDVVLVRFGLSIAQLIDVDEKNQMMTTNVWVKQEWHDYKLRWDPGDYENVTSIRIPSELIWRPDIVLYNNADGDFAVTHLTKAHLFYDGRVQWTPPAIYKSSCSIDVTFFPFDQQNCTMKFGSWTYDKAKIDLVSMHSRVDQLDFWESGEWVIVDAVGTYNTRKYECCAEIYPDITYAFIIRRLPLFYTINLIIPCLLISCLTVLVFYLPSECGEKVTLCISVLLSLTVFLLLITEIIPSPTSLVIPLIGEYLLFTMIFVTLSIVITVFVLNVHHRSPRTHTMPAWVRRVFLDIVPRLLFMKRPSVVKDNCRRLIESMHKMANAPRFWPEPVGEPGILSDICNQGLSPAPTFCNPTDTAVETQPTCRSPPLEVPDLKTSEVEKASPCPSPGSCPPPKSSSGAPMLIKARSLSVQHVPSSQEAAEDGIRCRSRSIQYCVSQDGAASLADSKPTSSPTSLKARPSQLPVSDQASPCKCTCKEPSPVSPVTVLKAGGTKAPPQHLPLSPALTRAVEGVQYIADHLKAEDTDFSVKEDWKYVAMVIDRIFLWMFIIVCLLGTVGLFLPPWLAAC
T6 sequence (P12390 25-500): as the sequence (P12390 25-500) above
Procedure: as §1, §2, §3

NOP = molecular target: T7, NOP (Homo sapiens, UniProt P41146); experiment: PDSP primary binding NOP; conditions: primary binding, 10,000 nM; last figure of the line = mean of the 4 before it
T7 construct: purchased NIMH Psychoactive Drug Screening Program (PDSP)
T7 sequence (P41146 whole entry): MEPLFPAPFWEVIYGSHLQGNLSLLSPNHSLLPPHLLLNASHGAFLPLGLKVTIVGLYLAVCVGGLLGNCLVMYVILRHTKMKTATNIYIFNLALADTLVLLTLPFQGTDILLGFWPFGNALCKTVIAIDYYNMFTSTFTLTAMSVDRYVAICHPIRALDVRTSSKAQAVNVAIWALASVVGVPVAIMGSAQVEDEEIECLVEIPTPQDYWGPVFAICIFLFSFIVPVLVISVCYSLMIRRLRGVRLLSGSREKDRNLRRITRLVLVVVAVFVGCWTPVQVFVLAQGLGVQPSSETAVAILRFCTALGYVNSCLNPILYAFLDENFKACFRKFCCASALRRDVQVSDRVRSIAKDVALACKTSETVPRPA
Procedure: as §1, §2, §3

OT = molecular target: T8, OT (Homo sapiens, UniProt P30559); experiment: PDSP primary binding OT (Oxytocin); conditions: primary binding, 10,000 nM; last figure of the line = mean of the 4 before it; some tables list it twice; read-out: OT (also Oxytocin), PDSP raw data, mean
T8 construct: purchased NIMH Psychoactive Drug Screening Program (PDSP)
T8 sequence (P30559 1-389): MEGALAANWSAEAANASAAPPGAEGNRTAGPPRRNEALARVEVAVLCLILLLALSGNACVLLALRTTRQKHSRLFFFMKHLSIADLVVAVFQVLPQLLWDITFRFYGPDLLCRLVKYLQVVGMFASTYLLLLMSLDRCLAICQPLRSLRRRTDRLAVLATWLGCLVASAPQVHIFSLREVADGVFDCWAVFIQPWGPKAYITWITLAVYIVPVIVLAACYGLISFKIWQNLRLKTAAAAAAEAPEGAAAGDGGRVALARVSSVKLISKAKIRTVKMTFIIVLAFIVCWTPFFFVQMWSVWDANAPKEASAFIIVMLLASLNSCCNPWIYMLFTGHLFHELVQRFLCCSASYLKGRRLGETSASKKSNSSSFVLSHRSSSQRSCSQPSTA
Procedure: as §1, §2, §3

AT2 = molecular target: T9, AT2 (Homo sapiens, UniProt P50052); experiment: PDSP primary binding AT2; conditions: primary binding, 10,000 nM; last figure of the line = mean of the 4 before it
T9 construct: purchased NIMH Psychoactive Drug Screening Program (PDSP)
T9 sequence (P50052 whole entry): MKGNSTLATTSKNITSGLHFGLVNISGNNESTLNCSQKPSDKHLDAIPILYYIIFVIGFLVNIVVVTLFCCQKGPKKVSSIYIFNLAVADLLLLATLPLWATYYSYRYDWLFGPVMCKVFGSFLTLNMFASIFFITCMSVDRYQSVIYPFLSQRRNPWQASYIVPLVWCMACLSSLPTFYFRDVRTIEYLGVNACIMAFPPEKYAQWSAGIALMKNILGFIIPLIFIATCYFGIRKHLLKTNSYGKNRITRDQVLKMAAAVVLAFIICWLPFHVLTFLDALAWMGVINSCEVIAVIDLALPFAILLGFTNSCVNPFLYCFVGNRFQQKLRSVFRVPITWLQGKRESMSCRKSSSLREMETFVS
Procedure: as §1
The NIMH PDSP assay protocol book [https://kidbdev.med.unc.edu/databases/PDSP%20Protocols%20II%202013-03-28.pdf accessed on 23 April 2023]. describes the protocols for primary and secondary radio-ligand binding assays. […]
The binding of a ligand to a receptor, ion channel, or transporter was determined in the […] of 10 µM of the appropriate reference compound. Nonspecific binding was also determined in the absence and presence of 10 µM of the appropriate reference compound. […] Radioactivity was then counted on a Microbeta counter. […]

Row | Structure (SMILES) | inhibition at 90 min, 10000 nM (hERG K+ channel) | inhibition at 10 µM (DAT) | GABAA, PDSP raw data, mean (GABAA) | inhibition at 10 µM (M4) | inhibition at 10 µM (SERT) | Sigma 1, PDSP raw data, mean (Sigma 1) | inhibition at 10 µM (Alpha3Beta2) | inhibition at 10 µM (Alpha4Beta2 (Rat Brain)) | NOP, PDSP raw data, mean (NOP) | inhibition at 10 µM (OT) | AT2, PDSP raw data, mean (AT2)
1 | C[C@H]1N=C(c2ccccc2F)c2cc(-c3ccccc3)ccc2-n2cnc(C(=O)N(C)C)c21 [Compound 5, (R)-6-(2′-Fluorophenyl)-N,N,4-trimethyl-8-phenyl-4H-benzo[f]imidazo[1,5-a][1,4]diazepine-3-carboxamide] | -0.48 ± 4.52% | 29.7% | -4.01% | -3.29% | -9.27% | 46.91% | 2.14% | -5.7% | – | – | –
2 | C#Cc1ccc2c(c1)C(c1ccccc1Cl)=N[C@H](C)c1c(C(=O)NC)ncn1-2 [Compound 21, (R)-6-(2′-Chlorophenyl)-8-ethynyl-N,4-dimethyl-4H-benzo[f]imidazo[1,5-a][1,4]diazepine-3-carboxamide] | -5.73 ± 11.1% | – | 12.76% | -16.9% | 9.24% | 44.58% | 3.21% | 0.7% | -0.1% | -0.63% | –
3 | C#Cc1ccc2c(c1)C(c1ccccn1)=N[C@@H](C)c1c(C(=O)NC)ncn1-2 [Compound 23, (S)-8-Ethynyl-N,4-dimethyl-6-(pyridin-2′-yl)-4H-benzo[f]imidazo[1,5-a][1,4]diazepine-3-carboxamide] | -4.24 ± 3.47% | – | 23.24% | 2.93% | -7.1% | 43.18% | 7.13% | 2.71% | – | 47.4% | –
4 | C#Cc1ccc2c(c1)C(c1ccccc1Cl)=N[C@H](C)c1c(C(=O)N(C)CC)ncn1-2 [Compound 29] | -1.55 ± 10.1% | – | 25.77% | 4.91% | 6.07% | 35.65% | 3.52% | 0.03% | – | 41.8% | –
5 | C#Cc1ccc2c(c1)C(c1ccccn1)=N[C@@H](C)c1c(C(=O)N(C)C)ncn1-2 [Compound 31, (S)-8-Ethynyl-N,N,4-trimethyl-6-(pyridin-2′-yl)-4H-benzo[f]imidazo[1,5-a][1,4]diazepine-3-carboxamide] | 0.95 ± 2.21% | 15.5% | 9.39% | 3.2% | 4.04% | 27.79% | 3.57% | 2.48% | -14.49% | 23.7% | –
6 | C#Cc1ccc2c(c1)C(c1ccccc1F)=N[C@H](C)c1c(C(=S)N(C)C)ncn1-2 [Compound 33, (R)-8-Ethynyl-6-(2′-fluorophenyl)-N,N,4-trimethyl-4H-benzo[f]imidazo[1,5-a][1,4]diazepine-3-carbothioamide] | -4.4 ± 4.52% | 29.7% | -4.01% | -3.29% | -9.27% | 46.91% | 2.14% | -5.7% | – | – | –
7 | CCc1noc(-c2ncn3c2[C@@H](C)N=C(c2ccccc2F)c2cc(-c4ccccc4)ccc2-3)n1 [Compound 35, (R)-3-Ethyl-5-(6-(2′-fluorophenyl)-4-methyl-8-phenyl-4H-benzo[f]imidazo[1,5-a][1,4]diazepin-3-yl)-1,2,4-oxadiazole] | 37.3 ± 5.97% | 49.4% | 16.02% | -4.16% | 17.2% | 45.25% | 5.43% | -11.6% | – | 6.27% | –
8 | CCc1noc(-c2ncn3c2[C@@H](C)N=C(c2ccccc2F)c2cc(Cl)ccc2-3)n1 [Compound 36, (R)-5-(8-Chloro-6-(2′-fluorophenyl)-4-methyl-4H-benzo[f]imidazo[1,5-a][1,4]diazepin-3-yl)-3-ethyl-1,2,4-oxadiazole] | – | 11% | 13.12% | -5.41% | 3.09% | 46% | 6.01% | 3.25% | – | 14.7% | –
9 | C[C@H]1N=C(c2ccccc2F)c2cc(Cl)ccc2-n2cnc(-c3nc(C4CC4)no3)c21 [Compound 38, (R)-5-(8-Chloro-6-(2′-fluorophenyl)-4-methyl-4H-benzo[f]imidazo[1,5-a][1,4]diazepin-3-yl)-3-cyclopropyl-1,2,4-oxadiazole] | 1.86 ± 25.6% | 40% | – | -8.66% | 13.1% | -1.51% | 6.96% | 0.48% | -17% | – | 24.14%
10 | CCc1noc(-c2ncn3c2CN=C(c2ccccc2F)c2cc(C4CC4)ccc2-3)n1 [Compound 44, 5-(8-Cyclopropyl-6-(2′-fluorophenyl)-4H-benzo[f]imidazo[1,5-a][1,4]diazepin-3-yl)-3-ethyl-1,2,4-oxadiazole] | 33.2 ± 12.6% | 37.4% | 11.92% | -4.92% | 7.2% | 53.37% | -0.02% | -0.99% | – | 15.4% | –
11 | CCc1noc(-c2ncn3c2[C@@H](C)N=C(c2ccccc2F)c2cc(C4CC4)ccc2-3)n1 [Compound 46, (R)-5-(8-Cyclopropyl-6-(2′-fluorophenyl)-4-methyl-4H-benzo[f]imidazo[1,5-a][1,4]diazepin-3-yl)-3-ethyl-1,2,4-oxadiazole] | 4.34 ± 3.92% | 22% | 19.52% | -0.8% | -3.28% | 34.74% | 5.55% | -5.79% | 7.5% | 11.4% | –
